Columns and labels:
Assay type in all cases: functional, cell-based
MCF7 = experiment: Cytotoxicity against human MCF7 cells assessed as reduction in cell viability after 72 hrs by MTT assay; conditions: MCF7, 72 h
MDA-MB-231 = experiment: Cytotoxicity against human MDA-MB-231 cells assessed as reduction in cell viability after 72 hrs by MTT assay; conditions: MDA-MB-231, 72 h
MGC-803 = experiment: Cytotoxicity against human MGC803 cells assessed as reduction in cell viability after 72 hrs by MTT assay; conditions: MGC-803, 72 h
HGC-27 = experiment: Cytotoxicity against human HGC27 cells assessed as reduction in cell viability after 72 hrs by MTT assay; conditions: HGC-27, 72 h
PC-3 = experiment: Cytotoxicity against human PC3 cells assessed as reduction in cell viability after 72 hrs by MTT assay; conditions: PC-3, 72 h

Structure (SMILES)	IC50 (MCF7)	IC50 (MDA-MB-231)	IC50 (MGC-803)	IC50 (HGC-27)	IC50 (PC-3)
FC(F)(F)c1ccc(CSc2nc(Nc3ccccc3)c3ccccc3n2)cc1	44 µM	18.4 µM	22.2 µM	26.4 µM	20 µM
CCCCCCCCCCCCNc1nc(SCc2ccc(C(F)(F)F)cc2)nc2ccccc12	> 50 µM	> 50 µM	> 50 µM	38.7 µM	26 µM
FC(F)(F)c1ccc(CSc2nc(Nc3ccccc3C(F)(F)F)c3ccccc3n2)cc1	> 50 µM	> 50 µM	> 50 µM	> 50 µM	34.8 µM
Fc1ccc(Nc2nc(SCc3ccc(C(F)(F)F)cc3)nc3ccccc23)cc1	36.3 µM	15 µM	9.62 µM	19.5 µM	7.07 µM
COc1ccccc1Nc1nc(SCc2ccc(C(F)(F)F)cc2)nc2ccccc12	> 50 µM	> 50 µM	> 50 µM	> 50 µM	14.1 µM
FC(F)(F)c1ccc(CSc2nc(Nc3cccc(Cl)c3)c3ccccc3n2)cc1	25.1 µM	18 µM	14.6 µM	19.9 µM	13.4 µM
FC(F)(F)c1ccc(CSc2nc(Nc3ccc(Cl)cc3)c3ccccc3n2)cc1	21.5 µM	15.1 µM	16.8 µM	14.1 µM	7.11 µM
FC(F)(F)c1ccc(CSc2nc(Nc3ccccc3Cl)c3ccccc3n2)cc1	> 50 µM	> 50 µM	> 50 µM	> 50 µM	20.4 µM
O=[N+]([O-])c1cccc(Nc2nc(SCc3ccc(C(F)(F)F)cc3)nc3ccccc23)c1	> 50 µM	31.5 µM	> 50 µM	> 50 µM	13.5 µM
COc1ccc(Nc2nc(SCc3ccc(C(F)(F)F)cc3)nc3ccccc23)c(OC)c1	> 50 µM	> 50 µM	> 50 µM	> 50 µM	32.5 µM
FC(F)(F)c1ccc(CSc2nc(Nc3cccc(C(F)(F)F)c3)c3ccccc3n2)cc1	15.3 µM	11.1 µM	15.1 µM	11.7 µM	12.9 µM
COc1ccc(Nc2nc(SCc3ccc(C(F)(F)F)cc3)nc3ccccc23)cc1OC	> 50 µM	18.9 µM	16.3 µM	17.9 µM	14.1 µM
CCCCCCCCNc1nc(SCc2ccc(C(F)(F)F)cc2)nc2ccccc12	26.1 µM	22.3 µM	12.6 µM	13.4 µM	10.5 µM
FC(F)(F)c1ccc(CSc2nc(N3CCCCC3)c3ccccc3n2)cc1	> 50 µM	28.4 µM	18.6 µM	> 50 µM	25.5 µM
FC(F)(F)c1ccc(CSc2nc(Nc3cccc(Br)c3)c3ccccc3n2)cc1	25.6 µM	22.1 µM	23.7 µM	18.3 µM	8.68 µM
Cc1ccccc1Nc1nc(SCc2ccc(C(F)(F)F)cc2)nc2ccccc12	37.5 µM	27.1 µM	24.4 µM	27.5 µM	36.9 µM
COc1cc(Nc2nc(SCc3ccc(C(F)(F)F)cc3)nc3ccccc23)cc(OC)c1OC	> 50 µM	> 50 µM	8.24 µM	14 µM	7.37 µM
COc1ccc(Nc2nc(SCc3ccc(C(F)(F)F)cc3)nc3ccccc23)cc1	47.2 µM	15.7 µM	13.8 µM	23.5 µM	16.7 µM
CCCCCCCCCCCCCCNc1nc(SCc2ccc(C(F)(F)F)cc2)nc2ccccc12	> 50 µM	> 50 µM	> 50 µM	> 50 µM	> 50 µM
O=[N+]([O-])c1ccc(Nc2nc(SCc3ccc(C(F)(F)F)cc3)nc3ccccc23)cc1	17.9 µM	8.67 µM	8.17 µM	16.6 µM	7.9 µM
CCCCCCNc1nc(SCc2ccc(C(F)(F)F)cc2)nc2ccccc12	24.3 µM	20.2 µM	13.1 µM	23.9 µM	19 µM
Fc1ccc(Nc2nc(SCc3ccc(C(F)(F)F)cc3)nc3ccccc23)cc1Cl	23 µM	14.5 µM	> 50 µM	14.7 µM	18.6 µM
CCOc1ccc(Nc2nc(SCc3ccc(C(F)(F)F)cc3)nc3ccccc23)cc1	> 50 µM	23 µM	37 µM	33 µM	32 µM
CCOc1ccccc1Nc1nc(SCc2ccc(C(F)(F)F)cc2)nc2ccccc12	> 50 µM	> 50 µM	> 50 µM	> 50 µM	26.2 µM
COc1cc(Nc2nc(SCc3ccc(C(F)(F)F)cc3)nc3ccccc23)cc(OC)c1	6.99 µM	16.1 µM	8.58 µM	> 50 µM	> 50 µM
Cc1ccc(Nc2nc(SCc3ccc(C(F)(F)F)cc3)nc3ccccc23)cc1	> 50 µM	> 50 µM	36.1 µM	34.6 µM	21.1 µM

— ChEMBL document CHEMBL4393664, “2,4-Disubstituted quinazolines targeting breast cancer cells via EGFR-PI3K” (Eur J Med Chem, 2019)
